From the supplement of paper PMC10307832

Key:
Experiment in all cases: relative viability (nuclei count vs DMSO), 5 days (fraction); higher = more cells survive
[1] = compound: COc1cc2nc(N3CCCN(C)CC3)nc(NC3CCN(Cc4ccccc4)CC3)c2cc1OC + COc1cccc2cc(-c3nc([C@H]4CC[C@H](C(=O)O)CC4)n4ncnc(N)c34)[nH]c12 [OSI-027] (partner 0.5 µM)
In short: (§1)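 Nuclei were stained with Hoechst during a one-step fixation (final 0.05% Triton X-100, 1% formaldehyde, 1 ug/ml Hoechst) carried out 5 days after dosing, then counted on 4× images. The cells, lung cancer lines in 1536-well plates, had been dosed by pin tool the day after seeding with one drug alone or a fixed anchor-drug dose plus five library-drug doses (not always all listed) in √10 steps. Relative viability is the nuclei count in treated wells divided by that in vehicle wells, and each value is the median of duplicate plates.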

[2] = compound: COc1cc2nc(N3CCCN(C)CC3)nc(NC3CCN(Cc4ccccc4)CC3)c2cc1OC + C[C@@H](Oc1cc(-c2cnn(C3CCNCC3)c2)cnc1N)c1c(Cl)ccc(F)c1Cl [Crizotinib] (partner 1 µM)
In short: as §1

[3] = compound: COc1cc2nc(N3CCCN(C)CC3)nc(NC3CCN(Cc4ccccc4)CC3)c2cc1OC + Nc1ncn([C@H]2C[C@H](O)[C@@H](CO)O2)c(=O)n1 [Decitabine] (partner 2 µM)
In short: as §1

AZD6482 + OSI-027 = compound: Cc1cc([C@@H](C)Nc2ccccc2C(=O)O)c2nc(N3CCOCC3)cc(=O)n2c1 [AZD6482] + COc1cccc2cc(-c3nc([C@H]4CC[C@H](C(=O)O)CC4)n4ncnc(N)c34)[nH]c12 [OSI-027] (partner 0.5 µM)
In short: as §1

| Cell Line | relative viability ([1]; first compound 0.2 µM) | relative viability ([1]; first compound 0.6325 µM) | relative viability ([1]; first compound 2 µM) | relative viability ([1]; first compound 6.325 µM) | relative viability ([2]; first compound 0.2 µM) | relative viability ([2]; first compound 0.6325 µM) | relative viability ([2]; first compound 2 µM) | relative viability ([2]; first compound 6.325 µM) | relative viability ([3]; first compound 0.2 µM) | relative viability ([3]; first compound 0.6325 µM) | relative viability ([3]; first compound 2 µM) | relative viability ([3]; first compound 6.325 µM) | relative viability (AZD6482 + OSI-027; first compound 0.08 µM) | relative viability (AZD6482 + OSI-027; first compound 0.253 µM) | relative viability (AZD6482 + OSI-027; first compound 0.8 µM) | relative viability (AZD6482 + OSI-027; first compound 2.53 µM) | relative viability (AZD6482 + OSI-027; first compound 8 µM) |
| --- | --- | --- | --- | --- | --- | --- | --- | --- | --- | --- | --- | --- | --- | --- | --- | --- | --- |
| NCI-H2023 | 0.363 | 0.508 | 0.364 | 0.126 | 0.616 | 0.592 | 0.686 | 0.156 | 0.226 | 0.218 | 0.25 | 0.114 | 0.398 | 0.336 | 0.341 | 0.237 | 0.245 |
| COR-L 105 | 0.534 | 0.882 | 0.487 | 0.554 | 0.653 | 0.872 | 0.878 | 0.455 | 0.687 | 0.685 | 0.648 | 0.492 | 0.75 | 0.742 | 0.577 | 0.33 | 0.517 |
| RERF-LC-KJ | 0.527 | 0.586 | 0.573 | 0.383 | 0.721 | 0.82 | 0.872 | 0.853 | 0.743 | 0.699 | 0.733 | 0.679 | 0.547 | 0.496 | 0.458 | 0.497 | 0.399 |
| LXF-289 | 0.696 | 0.761 | 0.791 | 0.768 | 0.812 | 0.8 | 0.824 | 0.786 | 0.396 | 0.365 | 0.418 | 0.393 | 0.825 | 0.643 | 0.772 | 0.559 | 0.615 |
| PC-14 | 0.758 | 0.734 | 0.733 | 0.0418 | 0.932 | 0.883 | 1.08 | 0.83 | 0.193 | 0.223 | 0.241 | 0.0753 | 0.723 | 1.04 | 0.841 | 0.658 | 0.954 |
| NCI-H650 | 0.532 | 0.483 | 0.508 | 0.329 | 0.734 | 0.589 | 0.841 | 0.733 | 0.323 | 0.307 | 0.392 | 0.279 | 0.588 | – | 0.457 | 0.305 | 0.356 |
| NCI-H1666 | 0.816 | 0.877 | 0.757 | 0.859 | 0.969 | 0.958 | 0.981 | 0.886 | 0.597 | 0.805 | 0.658 | 0.729 | 0.684 | 0.765 | 0.918 | 0.66 | 0.8 |
| NCI-H2085 | 0.742 | 0.788 | 0.72 | 0.584 | 0.866 | 0.842 | 0.859 | 0.776 | 0.53 | 0.531 | 0.594 | 0.559 | 0.523 | 0.478 | 0.473 | 0.28 | 0.331 |
| NCI-H1734 | 0.587 | 0.583 | 0.506 | 0.501 | 0.66 | 0.602 | 0.687 | 0.661 | 0.504 | 0.469 | 0.516 | 0.519 | 0.46 | 0.509 | 0.542 | 0.362 | 0.387 |
| NCI-H2126 | 0.769 | 0.794 | 0.693 | 0.662 | 0.978 | 0.969 | 1.08 | 0.996 | 0.577 | 0.55 | 0.561 | 0.567 | 0.647 | 0.652 | 0.704 | 0.403 | 0.485 |
| EMC-BAC-2 | 0.361 | 0.353 | 0.39 | 0.397 | 0.729 | 0.747 | 0.843 | 0.824 | 0.997 | 0.968 | 0.882 | 0.915 | 0.394 | 0.376 | 0.347 | 0.273 | 0.316 |
| NCI-H1993 | 0.534 | 0.57 | 0.529 | 0.553 | 0.796 | 0.839 | 0.882 | 0.834 | 0.566 | 0.522 | 0.58 | 0.568 | 0.502 | 0.521 | 0.516 | 0.529 | 0.534 |
| NCI-H520 | 0.315 | 0.269 | 0.212 | 0.234 | 0.714 | 0.664 | 0.852 | 0.214 | 0.495 | 0.454 | 0.534 | 0.214 | 0.214 | 0.176 | 0.211 | 0.178 | 0.178 |
| NCI-H647 | 0.597 | 0.664 | 0.62 | 0.272 | 1.01 | 0.973 | 0.968 | 0.466 | 0.421 | 0.356 | 0.394 | 0.28 | 0.459 | 0.513 | 0.612 | 0.335 | 0.315 |
| NCI-H1792 | 0.836 | 0.816 | 0.682 | 0.784 | 0.994 | 1.04 | 0.975 | 1.08 | 0.625 | 0.553 | 0.481 | 0.496 | 0.662 | 0.677 | 0.73 | 0.511 | 0.406 |
| SK-LU-1 | 0.358 | 0.302 | 0.36 | 0.179 | 0.858 | 0.943 | 0.92 | 0.536 | 0.644 | 0.706 | 0.703 | 0.618 | – | 0.319 | 0.347 | 0.246 | 0.214 |

| Cell Line | relative viability ([1]; first compound 0.2 µM) | relative viability ([1]; first compound 0.6325 µM) | relative viability ([1]; first compound 2 µM) | relative viability ([1]; first compound 6.325 µM) | relative viability ([2]; first compound 0.2 µM) | relative viability ([2]; first compound 0.6325 µM) | relative viability ([2]; first compound 2 µM) | relative viability ([2]; first compound 6.325 µM) | relative viability ([3]; first compound 0.2 µM) | relative viability ([3]; first compound 0.6325 µM) | relative viability ([3]; first compound 2 µM) | relative viability ([3]; first compound 6.325 µM) | relative viability (AZD6482 + OSI-027; first compound 0.08 µM) | relative viability (AZD6482 + OSI-027; first compound 0.253 µM) | relative viability (AZD6482 + OSI-027; first compound 0.8 µM) | relative viability (AZD6482 + OSI-027; first compound 2.53 µM) | relative viability (AZD6482 + OSI-027; first compound 8 µM) |
| --- | --- | --- | --- | --- | --- | --- | --- | --- | --- | --- | --- | --- | --- | --- | --- | --- | --- |
| ChaGo-K-1 | 0.572 | 0.604 | 0.564 | 0.501 | 1.18 | 1.11 | 1.14 | 1.09 | 0.553 | 0.506 | 0.49 | 0.504 | 0.634 | 0.323 | 0.539 | 0.477 | 0.49 |
| NCI-H1650 | 0.602 | 0.857 | 0.519 | 0.555 | 1 | 0.903 | 1.2 | 0.892 | 0.403 | 0.399 | 0.377 | 0.353 | 0.536 | 0.636 | 0.569 | 0.347 | 0.447 |
| NCI-H2009 | 0.681 | 0.531 | 0.784 | 0.29 | 1.05 | 0.923 | 1.06 | 0.874 | 0.396 | 0.392 | 0.43 | 0.375 | 0.56 | 0.601 | 0.555 | 0.224 | 0.388 |
| LOU-NH91 | 0.75 | 0.761 | 0.625 | 0.74 | 0.701 | 0.742 | 0.668 | 0.778 | 0.779 | 0.845 | 0.853 | 0.808 | 0.606 | 0.702 | 0.66 | 0.455 | 0.579 |
| NCI-H2405 | 0.717 | 0.677 | 0.671 | 0.66 | 0.869 | 0.825 | 0.927 | 0.894 | 0.706 | 0.745 | 0.784 | 0.729 | 0.46 | – | 0.595 | 0.369 | 0.336 |
| LCLC-97TM1 | 0.569 | 0.621 | 0.674 | 0.537 | 0.252 | – | 0.599 | 0.313 | 0.244 | 0.202 | 0.225 | 0.27 | 0.482 | 0.399 | 0.384 | 0.255 | 0.312 |
| NCI-H596 | 0.771 | 0.786 | 0.866 | 0.667 | 0.998 | 1.09 | 0.988 | 0.933 | 1.13 | 0.934 | 0.958 | 1.03 | 0.676 | 0.596 | 0.809 | 0.732 | 0.559 |
| NCI-H727 | 0.511 | 0.68 | 0.535 | 0.565 | 0.757 | 0.752 | 1.13 | 0.592 | 0.756 | 1.02 | 0.865 | 0.726 | 0.457 | 0.521 | 0.511 | 0.43 | 0.518 |
| H3255 | 0.513 | 0.534 | 0.587 | 0.692 | 0.781 | 0.894 | 1.03 | 0.856 | 0.576 | 0.626 | 0.601 | 0.588 | 0.618 | 0.53 | 0.554 | 0.411 | 0.392 |
| SK-MES-1 | 0.61 | 0.56 | 0.536 | 0.218 | 0.97 | 0.962 | 1.04 | 1.06 | 0.371 | 0.351 | 0.316 | 0.101 | 0.502 | 0.554 | 0.417 | 0.302 | 0.293 |
| NCI-H1437 | 0.901 | 0.876 | 0.85 | 0.918 | 0.901 | 0.866 | 1.02 | 0.879 | 0.61 | 0.522 | 0.584 | 0.577 | 0.983 | 0.855 | 1.07 | 0.471 | 0.567 |
| LU99A | 0.319 | 0.292 | 0.26 | 0.278 | 0.563 | 0.576 | 0.553 | 0.56 | 0.863 | 0.857 | 0.893 | 0.811 | 0.301 | 0.276 | 0.325 | 0.203 | 0.3 |
| HCC-827 | 0.761 | 0.793 | 0.687 | 0.781 | 0.886 | 0.944 | 0.917 | 0.918 | 0.172 | 0.315 | 0.221 | 0.326 | 0.709 | 0.658 | 0.8 | 0.451 | 0.48 |
| LK-2 | 0.197 | 0.221 | 0.196 | 0.214 | 0.233 | 0.237 | 0.235 | 0.284 | 0.276 | 0.244 | 0.359 | 0.326 | 0.222 | 0.2 | 0.177 | 0.196 | 0.177 |
| HCC-366 | 0.92 | 0.944 | 0.398 | 0.747 | 0.566 | 0.515 | 0.644 | 0.567 | 0.334 | 0.292 | 0.358 | 0.309 | 1.01 | 0.801 | 0.906 | 0.574 | 0.515 |
